Experiment: in vivo
Settings: mouse, plasma; for clearance: iv, 15 mg/kg

Structure (SMILES)	clearance [mL/min/kg]	AUC (po, 50 mg/kg) [µM·h]
CCN1C(=O)[C@@H](NC(=O)c2cccc(C)c2)[C@@H](c2ccc(F)cc2)c2c(C)nn(-c3ccccc3)c21 (relative stereo) [Compound 2, N-(rel-(4S,5S)-7-ethyl-4-(4-fluorophenyl)-3-methyl-6-oxo-1-phenyl-4,5,6,7-tetrahydro-1H-pyrazolo[3,4-b]pyridin-5-yl)-3-methylbenzamide]	86.7	2.9
CCN1C(=O)[C@@H](NC(=O)c2cccc(C(F)(F)F)c2)[C@@H](c2ccc(F)cc2)c2c(CN)nn(-c3ccccc3)c21 (relative stereo) [Compound 40, N-(rel-(4S,5S)-3-(aminomethyl)-7-ethyl-4-(4-fluorophenyl)-6-oxo-1-phenyl-4,5,6,7-tetrahydro-1H-pyrazolo[3,4-b]pyridin-5-yl)-3-(trifluoromethyl)benzamide]	20	–

Source: article PMC8159160 (Journal of medicinal chemistry, 2021)
